Test: Binding affinity against sigma receptor in bovine cerebellum using 2.0 nM [3H]haloperidol in the presence of 25 nM unlabeled spiperone

Work on `O=C(CCN1CC=C(c2ccc(Cl)cc2)CC1)c1ccccc1Cl` [1-(2-Chloro-phenyl)-3-[4-(4-chloro-phenyl)-3,6-dihydro-2H-pyridin-1-yl]-propan-1-one] yielded an IC50 of 0.105 µM.

Source: BindingDB's records for doi:10.1021/jm00076a021 (New York University, 1994)
